Among the data in US9845308B2, “Isoindoline inhibitors of ROR-gamma” (Vitae Pharmaceuticals, Inc., priority 2014, dated 2017) are Ki and IC50 values, retold here.

The target in assay [1] is recombinant RORγ Ligand Binding Domain (LBD) protein (Homo sapiens (Human), UniProt P51449). The assay can be described thus: Radio-Ligand RORγ Binding Assay (Assay 1). The conditions noted are these: competition with 25-hydroxy[26,27-3H]-cholesterol, SPA; read-out: RORγ Binding Ki Range* (nM) (Assay 1). The procedure: Radio-Ligand RORγ Binding Assay (Assay 1)
Compounds of the present invention were tested for ability to bind to RORγ in a cell-free competition assay with commercially available radio-ligand (RL), 25-hydroxy[26,27-^3H]-cholesterol (PerkinElmer, Cat. #NET674250UC), for a ligand binding site on a recombinant RORγ Ligand Binding Domain (LBD) protein expressed as a 6×His-Glutathione-S-Transferase (GST) fusion. […] The plate was shaken at 700 rpm for 20 min and incubated for 10 min at rt, after which 40 μL of poly-Lys YSi SPA beads (PerkinElmer, Cat. #RPNQ0010) were added to achieve 50 μg of the beads per well. The plate was incubated on an orbital shaker for 20 min and then for 10 min without agitation at rt. SPA signal for tritium beta radiation was registered on PerkinElmer Microbeta plate reader. […] The percent inhibition vs. concentration data were fit into a four-parameter model, and IC50 values were calculated from the fit as the concentrations corresponding to the inflection points on the dose-response curves. […]

The target of assay [2] is full-length RORγt in Jurkat cells (Homo sapiens (Human), UniProt P51449). The assay is described as follows: RORγt 5×RORE Assay in Jurkat Cells (Assay 2). In kind it is cell-based. The note with it: 5xRORE secreted Nanoluc luciferase reporter, 16-18 hrs, read-out: RORγt5X IC50 Range* (nM) (Assay 2). The protocol: [formula] RORγt 5×RORE Assay in Jurkat Cells (Assay 2)
Compounds of the present invention were tested for RORγ inverse agonist activity in a cell-based, transcriptional activity assay. […] (Promega, Cat. #N1021) using KpnI and HindIII restriction sites. […] Tested compounds were added to the cells in the same media (final concentration of DMSO was 0.1% (v/v)), and the plates were incubated at 37° C./5% CO2 for 16-18 hrs. Luciferase activity in the conditioned supernatants was determined with NanoGlo® assay reagents (Promega, Cat.#N1130).
A general note: Reporter assays use an easily measured gene product as a stand-in for the process of interest.

Chain of recombinant RORγ Ligand Binding Domain (LBD) protein (P51449 269-508): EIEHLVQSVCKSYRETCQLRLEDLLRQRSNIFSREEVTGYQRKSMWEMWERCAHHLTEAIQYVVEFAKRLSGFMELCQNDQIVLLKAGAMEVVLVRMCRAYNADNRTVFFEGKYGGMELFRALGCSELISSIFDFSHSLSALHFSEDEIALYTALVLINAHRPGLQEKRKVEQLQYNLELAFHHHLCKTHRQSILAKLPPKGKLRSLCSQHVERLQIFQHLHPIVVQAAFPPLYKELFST
Chain of full-length RORγt in Jurkat cells (P51449 other isoform, or with tags, fused parts or gaps): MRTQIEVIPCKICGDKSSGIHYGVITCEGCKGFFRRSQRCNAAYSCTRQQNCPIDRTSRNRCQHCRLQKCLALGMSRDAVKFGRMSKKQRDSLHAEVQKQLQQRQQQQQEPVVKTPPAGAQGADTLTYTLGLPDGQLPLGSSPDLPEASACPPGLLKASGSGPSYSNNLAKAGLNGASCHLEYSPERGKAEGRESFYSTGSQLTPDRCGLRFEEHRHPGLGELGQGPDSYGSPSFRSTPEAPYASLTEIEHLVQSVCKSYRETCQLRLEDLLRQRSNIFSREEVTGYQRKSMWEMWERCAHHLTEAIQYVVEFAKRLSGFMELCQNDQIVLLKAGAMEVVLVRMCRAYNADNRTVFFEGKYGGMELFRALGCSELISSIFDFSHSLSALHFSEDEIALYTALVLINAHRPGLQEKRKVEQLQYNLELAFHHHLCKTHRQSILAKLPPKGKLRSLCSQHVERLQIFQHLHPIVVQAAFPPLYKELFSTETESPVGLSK

Consider `CC[C@H]1c2ccc(C(=O)NCc3ccc(S(=O)(=O)NC)cn3)cc2CN1C[C@H]1CC[C@H](C(F)(F)F)CC1` [Compound 23a], for which, in assay [1], the inhibition constant (Ki) was below 100 nM. The IC50 in assay [2] was below 100 nM.

In the case of `CC[C@@H]1c2ccc(C(=O)NCc3ccc(S(=O)(=O)NC)cn3)cc2CN1C[C@H]1CC[C@H](C(F)(F)F)CC1` [Compound 23b], in assay [1], the Ki was below 100 nM. Moreover, the concentration for half-maximal inhibition (IC50) in assay [2] lay in the range of 100 to 1000 nM.

Consider `CCS(=O)(=O)c1ccc(CNC(=O)c2ccc3c(c2)C(=O)N(Cc2ccc(C(F)(F)F)cc2)C3C(C)C)nc1` (centres unmarked) [Compound 27], for which the Ki in assay [1] is below 100 nM. Moreover, the half-inhibitory concentration (IC50) in assay [2] was in the range of 100 to 1000 nM.

For `CCS(=O)(=O)c1ccc([C@H](CO)NC(=O)c2ccc3c(c2)C(=O)N(Cc2ccc(C(F)(F)F)cc2)C3C(C)C)cc1` (some centres unmarked) [Compound 28], the Ki in assay [1] is below 100 nM. The IC50 in assay [2] was below 100 nM.

Broadly, the Ki is the dissociation constant of the complex between target and ligand, obtained from inhibition or displacement. The term IC50 denotes the concentration that gives 50% inhibition.
